Counter-ions that a name gives are not always drawn. Marks after values point to notes of the source that are not given here.
Assays:
Format in all cases: physicochemical
[1] = Kinetic solubility test in water and bio-relevant media (SGF, FaSSIF, FeSSIF); conditions: for S: solubility: 37° C.; for Purity (%), area percentage of API: for reference only (suspensions); for FC: form change: residual solids by XRPD; for pH: supernatant
Procedure, shortened: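 Solids (~1 mg/mL loading as freeform) rolled at 25 rpm, 37° C in water, SGF (pH 1.8), FaSSIF (pH 6.5) or FeSSIF (pH 5.0). Sampled at 1, 4 and 24 h, centrifuged and filtered (0.45 μm PTFE). Supernatant concentration by HPLC, with pH measured; residual solids checked by XRPD.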

[2] = Solid stability evaluation (I/II), XRPD and HPLC
Procedure, shortened: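 Tris salt Form A and amorphous free form of Compound I, and Compound II citrate salt Form A, Tris salt Form B and free form, stored as solids at 60° C. for 1 day and at 25° C./60% RH or 40° C./75% RH for 1 week. Physical form checked by XRPD and chemical stability by HPLC.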

Hygroscopicity, DVS test = conditions: 25° C.
Procedure: DVS was measured via a SMS (Surface Measurement Systems) DVS Intrinsic. The relative humidity at 25° C. were calibrated against deliquescence point of LiCl, Mg(NO3)2 and KCl.
To investigate the solid form stability as a function of humidity, DVS isotherm plot of 1:1 Compound I Tris Salt (Form A) was collected between 0% RH and 95% RH at 25° C. […] Considering the 1:1 Compound I Tris Salt (Form A) is a hydrate and may dehydrate under low humidity, DVS was also tested at 20 and 30° C. to further confirm the suitable storage condition and avoid dehydration. […] Combing the VH-XRPD and DVS results: the condition of 20-30° C. and relative humidity ≥40% RH is suitable for the storage of 1:1 Compound I Tris Salt (Form A).
To investigate the solid form stability as a function of humidity, DVS isotherm plots of 1:1 Compound II Citrate Salt (Form A) and 1:1 Compound II Tris Salt (Form B) were collected at 25° C. between 0% RH and 95% RH. […] The water uptake increased by 0.97% from 10% to 80% RH and a platform was observed.

- S: solubility ([1]; FaSSIF, 1 hour): 70 µg/mL
- Purity (%), area percentage of API ([1]; FaSSIF, 1 hour): 72.58%
- S: solubility ([1]; FaSSIF, 4 hours): 50 µg/mL
- Purity (%), area percentage of API ([1]; FaSSIF, 4 hours): 59.86%
- S: solubility ([1]; FaSSIF, 24 hours): 100 µg/mL
- Purity (%), area percentage of API ([1]; FaSSIF, 24 hours): 72.13%
- S: solubility ([1]; FeSSIF, 1 hour): 200 µg/mL
- Purity (%), area percentage of API ([1]; FeSSIF, 1 hour): 98.18%
- S: solubility ([1]; FeSSIF, 4 hours): 300 µg/mL
- Purity (%), area percentage of API ([1]; FeSSIF, 4 hours): 93.37%
- S: solubility ([1]; FeSSIF, 24 hours): 300 µg/mL
- Purity (%), area percentage of API ([1]; FeSSIF, 24 hours): 80.52%
- S: solubility ([1]; H2O, 1 hour): 400 µg/mL
- Purity (%), area percentage of API ([1]; H2O, 1 hour): 93.07%
- S: solubility ([1]; H2O, 4 hours): 900 µg/mL
- Purity (%), area percentage of API ([1]; H2O, 4 hours): 93.13%
- S: solubility ([1]; H2O, 24 hours): 600 µg/mL
- Purity (%), area percentage of API ([1]; H2O, 24 hours): 92.03%
- Solubility in H2O, comparison in words ([1]; H2O, compared with the other tested materials): better solubility
- S: solubility ([1]; SGF, 1 hour): 600 µg/mL
- Purity (%), area percentage of API ([1]; SGF, 1 hour): 93.44%
- S: solubility ([1]; SGF, 4 hours): 200 µg/mL
- Purity (%), area percentage of API ([1]; SGF, 4 hours): 84.69%
- S: solubility ([1]; SGF, 24 hours): 200 µg/mL
- Purity (%), area percentage of API ([1]; SGF, 24 hours): 82.04%
- FC: form change ([1]; FaSSIF, 4 hours): Yes
- FC: form change ([1]; FaSSIF, 24 hours): Yes
- FC: form change ([1]; FeSSIF, 1 hour): No
- FC: form change ([1]; FeSSIF, 4 hours): Yes
- FC: form change ([1]; FeSSIF, 24 hours): Yes
- FC: form change ([1]; H2O, 1 hour): No
- FC: form change ([1]; H2O, 4 hours): Yes
- FC: form change ([1]; H2O, 24 hours): Yes
- FC: form change ([1]; SGF, 1 hour): Yes
- FC: form change ([1]; SGF, 4 hours): Yes
- FC: form change ([1]; SGF, 24 hours): Yes
- pH ([1]; FaSSIF, 1 hour): 6.6
- pH ([1]; FaSSIF, 4 hours): 6.6
- pH ([1]; FaSSIF, 24 hours): 6.5
- pH ([1]; FeSSIF, 1 hour): 5.1
- pH ([1]; FeSSIF, 4 hours): 5.1
- pH ([1]; FeSSIF, 24 hours): 5.0
- pH ([1]; H2O, 1 hour): 7.6
- pH ([1]; H2O, 4 hours): 7.8
- pH ([1]; H2O, 24 hours): 7.9
- pH ([1]; SGF, 1 hour): 1.9
- pH ([1]; SGF, 4 hours): 2.0
- pH ([1]; SGF, 24 hours): 2.0
- Solubility in SGF, FaSSIF and FeSSIF compared with freeform ([1]; within 1 hour): higher than that of freeform
- Form change ([2]; 25° C./60% RH (open), 1 week): No
- Observation ([2]; 25° C./60% RH (open), 1 week): Yellow
- Purity (area %) ([2]; 25° C./60% RH (open), 1 week): 93.86 area %
- Form change ([2]; 40° C./75% RH (open), 1 week): No
- Observation ([2]; 40° C./75% RH (open), 1 week): Yellow
- Purity (area %) ([2]; 40° C./75% RH (open), 1 week): 94.13 area %
- Chemical stability compared with free form ([2]; 60° C. 1 day, 25° C./60% RH or 40° C./75% RH 1 week): better chemical stability
- Form change ([2]; 60° C. (capped), 1 day): No
- Observation ([2]; 60° C. (capped), 1 day): Yellow
- Purity (area %) ([2]; 60° C. (capped), 1 day): 92.98 area %
- Form change ([2]; Initial): No
- Observation ([2]; Initial): Yellowish
- Purity (area %) ([2]; Initial): 94.56 area %
- Form change after DVS test (Hygroscopicity, DVS test): No
- Hygroscopicity (Hygroscopicity, DVS test; according to Chinese Pharmacopeia 2015): Slightly hygroscopic
- Water uptake increase between 0% and 10% RH (Hygroscopicity, DVS test; cycle 2 sorption curve): 2.47%
- Water uptake from 10% RH to 80% RH (Hygroscopicity, DVS test): 0.97%*
- Water uptake from 10% RH to 80% RH (Hygroscopicity, DVS test; listed as 1:1 Compound II Tris Salt (Form B)): 0.97%
Compound: N#Cc1ccc(COc2cccc(C3=CCN(Cc4nc5ccc(C(=O)O)cc5n4C[C@@H]4CCO4)CC3)n2)c(F)c1 [Tris salt Form B, (S)-2-((6-((4-cyano-2-fluorobenzyl)oxy)-3′,6′-dihydro-[2,4′-bipyridin]-1′(2′H)-yl)methyl)-1-(oxetan-2-ylmethyl)-1H-benzo[d]imidazole-6-carboxylic acid]

From patent US20230203023A1, “SALT AND CRYSTAL FORMS OF GLP-1R AGONISTS AND USES THEREOF” (QILU REGOR THERAPEUTICS INC., priority 2020, published 2023)
